Source: PMC9282638, “A Suite of Activity-Based Probes To Dissect the KLK Activome in Drug-Resistant Prostate Cancer” (Journal of the American Chemical Society, 2021)

Legend:
[1] = molecular target: T1, KLK2 (Homo sapiens, UniProt P20151); experiment: Determination of kinact/KI, fluorogenic substrate kinetic assay; format: biochemical; conditions: for kinact/KI: mean ± SEM (N = 3)
T1 construct: purchased R&D Systems
From the text: 1.1 Chemicals and Reagents
All chemicals and reagents were purchased from commercial suppliers and used without further purification. Rink Amide resin (100-200 mesh) and 2-Chlorotrityl chloride resin (100-200 mesh, 1% DVB) were obtained from Merck. Natural Fmoc-amino acids were obtained from AGTC Bioproducts Ltd. Unnatural Fmoc-amino acids were obtained from Fluorochem, Alfa Aesar, VWR, Merck, Iris Biotech, Bachem or Sigma Aldrich. Culture media, fetal bovine serum, trypsin, antibiotics and chemicals required for differentiation of osteoprogenitor cells were obtained from Sigma Aldrich, Gibco or Invitrogen. Amicon 3 KDa Centrifugal filter units were obtained from Merck. Recombinant human KLK2 and KLK14 were obtained from R&D Systems and activated using the supplier’s protocol. All remaining chemical reagents were obtained from VWR, Sigma Aldrich or Merck. […]
Fluorescent plate-based enzymatic assays were carried out using an Envision 2104 Multilabel Plate Reader (PerkinElmer) operating in kinetic mode for a minimum of 20 min with excitation/emission […]
Specificity […]
was calculated by normalizing RFUs-1 to the highest value, which was set at 100 %.
Calculations were made in GraphPad Prism 5.
Determination of kcat/KM: The KLK2 substrate and KLK14 substrate were serially diluted in the appropriate KLK assay buffer and 25 μL was added to the wells of a 96-well plate. Next, 25 μL of KLK2 (1.5 nM) or KLK14 (75 pM) was added to each well containing the substrate and the enzyme-substrate reaction was monitored for at least 10 min. The linear portion of each progress curve was used to calculate relative fluorescence units per second (RFUs-1).
KM, kcat, and kcat/KM parameters were determined by nonlinear regression in GraphPad Prism 5 (GraphPad Software). Each experiment was repeated three times and the results are presented as an average ± SEM.
Determination of kinact/KI: Under pseudo-first order conditions, a fixed amount of KLK2 (1.5 nM) or KLK14 (37 pM) was incubated with peptidyl-DPP analogue at different concentrations in the presence of 5 µM of substrate. The pseudo first-order rate constant, kobs, was calculated for each probe concentration using non-linear regression analysis in GraphPad Prism 5. The obtained values were plotted against probe concentration to afford the apparent second order rate constant kinact(app)/KI. The absolute value of the second order rate constant was then obtained by adjusting for the substrate competition factor (1 + [S]/Km), where S is the concentration of substrate in the assay and KM is the Michaelis Menten constant for that substrate/enzyme reaction.
2.5 Cell Migration Assays
Cell migration: The assay was performed as per the manufacturer’s protocol (https://www.corning.com/catalog/cls/documents/protocols/an_Chemotaxis_protocol.pdf).
Briefly, LNCaP-WT, LNCaP-mK14 and LNCaP-K14 cells were grown to 80% confluency in RPMI media supplemented with 5 % FBS. The media was then aspirated, the cells were washed with 2 mL PBS (3*) and incubated with serum-free RPMI (without phenol red) supplemented with 10 nM DHT ± 100 ng/mL Dox for 24 h. Cells were trypsinized, washed twice with serum-free RPMI and resuspended in serum-free RPMI. 100,000 cells in 100 µL of serum-free RPMI was then added to the transwell inserts placed in a 24-well plate (Corning […]
Figure S15: KLK2 and KLK14 substrates. (A) Structures (B) Optimal assay conditions for […]
S19) inhibitors (C) Michaelis-Menten (K M) and rate (kcat) constants for KLK substrates

[2] = molecular target: T2, KLK14 (Homo sapiens, UniProt Q9P0G3); experiment: as above; format: biochemical; conditions: for kinact/KI: mean ± SEM (N = 3)
T2 construct: purchased R&D Systems
T2 sequence (Q9P0G3 25-251): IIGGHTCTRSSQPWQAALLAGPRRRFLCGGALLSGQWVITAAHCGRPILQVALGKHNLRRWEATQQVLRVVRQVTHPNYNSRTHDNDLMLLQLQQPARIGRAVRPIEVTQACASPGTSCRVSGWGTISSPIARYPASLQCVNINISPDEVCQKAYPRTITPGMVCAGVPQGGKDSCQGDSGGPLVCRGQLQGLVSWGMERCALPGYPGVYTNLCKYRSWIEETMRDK

[3] = KLK14 probe optimization series

T1 sequence (P20151 25-261): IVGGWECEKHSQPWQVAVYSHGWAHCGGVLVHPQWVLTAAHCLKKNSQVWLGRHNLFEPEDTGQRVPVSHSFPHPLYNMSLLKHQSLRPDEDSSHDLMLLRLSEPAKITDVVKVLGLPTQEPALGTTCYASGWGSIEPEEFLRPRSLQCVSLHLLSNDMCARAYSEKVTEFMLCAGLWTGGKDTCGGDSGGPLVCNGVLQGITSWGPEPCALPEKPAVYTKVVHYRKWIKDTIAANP

| Compound | selectivity (fold-change) ([1]; KLK2 probe optimization series, KLK2 over KLK14) | kinact/KI ([1]; KLK2 probe optimization series) | kinact/KI ([2]; KLK2 probe optimization series) | kinact/KI [1, 3] | selectivity (fold-change) ([2]; KLK14 probe optimization series, KLK14 over KLK2) | kinact/KI [2, 3] | fold higher potency toward KLK14 ([2]; relative to compound 32) |
| --- | --- | --- | --- | --- | --- | --- | --- |
| CC(C)(C)C(NC(=O)CCCCCNC(=O)CCCCC1SCC2NC(=O)NC21)C(=O)NC(CCN)C(=O)NC(Cc1ccc(O)cc1)C(=O)NC(c1ccc(NC(=N)N)cc1)P(=O)(Oc1ccccc1)Oc1ccccc1 (stereo not drawn) [compound 31, Tle-Dab-Tyr-Arg] | 33 fold | 3080 ± 87 M⁻¹ s⁻¹ | 94 ± 7 M⁻¹ s⁻¹ |  |  |  |  |
| CCC(NC(=O)C(CCN)NC(=O)C(Cc1ccc2ccccc2c1)NC(=O)CCCCCNC(=O)CCCCC1SCC2NC(=O)NC21)C(=O)NC(c1ccc(NC(=N)N)cc1)P(=O)(Oc1ccccc1)Oc1ccccc1 (stereo not drawn) [compound 39, 2Nal-Dab-Abu-Arg] |  |  |  | 204 ± 13 M⁻¹ s⁻¹ | 220 fold | 44500 ± 1980 M⁻¹ s⁻¹ | 80 fold |
